The values that follow come from US7846902B2, “Dipeptide-comprising composition for oral administration” (Kyowa Hakko Bio Co., Ltd., priority 2005, dated 2010).

Peptide text beside a SMILES is read from it.

For the data set the following is noted: 37° C., 2 hours.
Experimental: 10 μL of the resultant dipeptide solution was mixed with 4 μL of blood plasma or 4 μL of water, and was incubated at 37° C. for 2 hours. The mixture solution after incubation was applied to a TLC plate (manufactured by Merck Ltd.), and developed with a solution containing butanol (Kishida Chemical Co., Ltd.), acetic acid (Kishida Chemical Co., Ltd.) and water in a ratio of 2:1:1. A 1% ninhydrin solution was sprayed onto the mixture, which was then incubated at 80° C. for 5 minutes. Incidentally, the 1% ninhydrin solution was prepared by dissolving ninhydrin (Wako Pure Chemical Industries, Ltd.) in ethanol (Kishida Chemical Co., Ltd.).
With `CC(C)[C@H](NC(=O)[C@H](C)N)C(=O)O` [Alanyl-Valine, alanyl-valine] (H-Ala-Val-OH), the “TLC spots when mixed with water” value is “single spot alone”.

As to `CC(C)C[C@H](NC(=O)[C@H](C)N)C(=O)O` [Alanyl-Leucine, alanyl-leucine] (H-Ala-Leu-OH), the “TLC spots when mixed with water” value is “single spot alone”.

For `CC[C@H](C)[C@H](NC(=O)[C@H](C)N)C(=O)O` [Alanyl-Isoleucine, alanyl-isoleucine] (H-Ala-Ile-OH), the “TLC spots when mixed with water” value is “single spot alone”.
